Where a name gives a salt, the structure may show the parent alone.
What was measured:
[1] = tested on: voltage operated calcium channels (VOC); test: inhibition of depolarization-induced 45Ca uptake into brain synaptosomes (crude P2 fraction); assay type: biochemical, male Wistar rat; conditions: rat cerebral cortex synaptosomes (P2), KCl-depolarized samples, 15 s uptake at 37° C., pH 7.4; triplicate; from dose response curves
From the text: The pharmacological properties of the compounds of the invention can be illustrated by determining their capability to inhibit calcium uptake into brain synaptosomes.
Depolarization of neuronal membranes leads to an opening of socalled `voltage operated calcium channels` (VOC) in the membranes which allows a massive influx of calcium from the extracellular space. A crude synaptosomal preparation (socalled P2 fraction) contains small vesicles surrounded by neuronal membrane and it is possible in such a preparation to study a depolarization-induced opening of VOC.
A male Wistar rat is decapitated and the cerebral cortex removed and homogenized in 10 ml of ice-cold 0.32 M sucrose using a glass homogenizer with a teflon pestle. All subsequent steps for isolation of synaptosomes are done at 0°-4° C. The homogenate is centrifuged at 1000×g for 10 min and the resulting supernatant is re-centrifuged at 18000×g for 20 min. This pellet (P2) is resuspended in 0.32 M sucrose (5 ml per g of original tissue) with a teflon pestle.
The tubes are pre- incubated for 30 min on ice and then for 6 min at 37° C. in a water bath.
The incubation is continued for 15 s.
The amount of radioactivity on the filter disc is determined by liquid scintillation spectrometry.
Test substances are dissolved in 10 ml of 48% ethanol at a concentration of 0.44 mg/ml. Dilutions are made in 48% ethanol to give final concentrations of 0.1, 0.3, 1, 3 and 10 μg/ml. Experiments are performed in triplicate. Controls for depolarized and nondepolarized samples are included in the assay and test substances are only tested in depolarized samples.
The IC50 value is estimated from dose response curves.

[2] = tested on: peripheral calcium uptake, e.g. in blood vessels and the heart; conditions: cited from earlier work

Row | SMILES | IC50 (concentration of test substance which inhibits 50% of stimulated uptake of 45Ca) [1] [µg/mL] | activity against peripheral calcium uptake [2]
1 | CCCCN1CC[C@@H](c2ccc(C)o2)[C@H](COc2cccc(C(F)(F)F)c2)C1 (relative stereo) [Compound 12, HCl] | 18 | –
2 | CCCCCN1CC[C@@H](c2cccs2)[C@H](COc2ccccc2C#N)C1 (relative stereo) [Compound 15, (+-) trans 3-(2-cyanophenoxymethyl)-1-pentyl-4-(2-thienyl)piperidine, HCl] | 7.2 | –
3 | CCCCN1CC[C@@H](c2cccs2)[C@H](COc2cccc(OC)c2)C1 (relative stereo) [Compound 25, (+-) trans 1-butyl-4-(2-thienyl)-3-(3-methoxyphenoxymethyl)piperidine, HCl] | 9.1 | –
4 | CCCCN1CC[C@@H](c2cccs2)[C@H](COc2ccccc2OC(C)C)C1 (relative stereo) [Compound 27, (+-) trans 1-butyl-3-(2-isopropoxyphenoxymethyl)-4-(2-thienyl)piperidine, oxalate] | 13 | –
5 | CCCCCN1CC[C@@H](c2cccs2)[C@H](COc2cccc(CN)c2)C1 (relative stereo) [Compound 28, (+-) trans 3-(3-aminomethylphenoxymethyl)-1-pentyl-4-(2-thienyl)piperidine,HCl] | 30 | –
6 | CCCCCN1CC[C@@H](c2ccsc2)[C@H](COc2ccc3c(c2)OCO3)C1 (relative stereo) [Compound 30, (+-) trans 3-(3,4-methylenedioxyphenoxymethyl)-1-pentyl-4-(3-thienyl)piperidine, HCl] | 4.9 | –
7 | CCCCCN1CC[C@@H](c2ccsc2)[C@H](COc2cccc(C(F)(F)F)c2)C1 (relative stereo) [Compound 31, (+-) trans 1-pentyl-4-(3-thienyl)-3-(3-trifluoromethylphenoxymethyl)piperidine, oxalate] | 4.7 | –
8 | CCCCCN1CC[C@@H](c2ccsc2)[C@H](COc2ccc(Cl)cc2)C1 (relative stereo) [Compound 37, (+-) trans 3-(4-chlorophenoxymethyl)-1-pentyl-4-(3-thienyl)piperidine, HCl] | 3.6 | –
9 | CCCCCN1CC[C@@H](c2ccsc2)[C@H](COc2ccc(C#N)cc2)C1 (relative stereo) [Compound 39, (+-) trans 3-(4-cyanophenoxymethyl)-1-pentyl-4-(3-thienyl)piperidine, HCl] | 2.7 | –
10 | CCCCCN1CC[C@@H](c2ccsc2)[C@H](COc2ccc(OC(F)(F)F)cc2)C1 (relative stereo) [Compound 43, (+-) trans 3-(4-trifluoromethoxyphenoxymethyl)-1-pentyl-4-(3-thienyl)piperidine, HCl] | 10 | –
11 | FC(F)(F)c1cccc(OC[C@@H]2CNCC[C@H]2c2ccsc2)c1 (relative stereo) [Compound 44, (+-) trans 4-(thienyl)-3-(3-trifluoromethylphenoxymethyl)piperidine, HCl] | 2.8 | –
12 | CCC(C)CN1CC[C@@H](c2ccsc2)[C@H](COc2cccc(C(F)(F)F)c2)C1 (relative stereo) [Compound 47, (+-) trans(2-methylbutyl)-4-(3-thienyl)-3-(3-trifluoromethylphenoxymethyl)piperidine, HCl] | 5.8 | –
13 | COc1ccc([C@@H]2Sc3ccccc3N(CCN(C)C)C(=O)[C@@H]2OC(C)=O)cc1 [Diltiazem] | – | have activity
14 | COC(=O)C1=C(C)NC(C)=C(C(=O)OC)C1c1ccccc1[N+](=O)[O-] [Nifedipine] | – | have activity
15 | COc1ccc(CCN(C)CCCC(C#N)(c2ccc(OC)c(OC)c2)C(C)C)cc1OC (stereo not drawn) [Verapamil] | – | have activity
